Results reported in the supplement of paper PMC4932681.

Experiments:
BT-474 Tam1 [1] = assay: drug sensitivity score (DSS) (DSS (dimensionless)); higher = more sensitive; extreme values may be limits of the assay; conditions: 4-OH-tamoxifen in medium 1 µM; 72 h
Summary of the method: (§1)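 Breast cancer cell lines and their resistant derivatives were seeded into 384-well plates holding FO2Baq library drugs at five concentrations spanning a 10 000-fold range. Resistant lines were in medium with 1 μM of the selecting drug. Cells were incubated 72 h at 37 °C, and CellTiter-Glo viability was read on a PHERAstar and normalised to vehicle-only and positive controls. Drug sensitivity score, relative IC50 (curve midpoint) and top-dose inhibition came from logistic dose–response fits (Breeze pipeline).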

BT-474 Tam2 [2] = assay: as above; conditions: 4-OH-tamoxifen in medium 1 µM; 72 h
Summary of the method: as §1

BT-474 [3] = assay: as above; conditions: 72 h
Summary of the method: as §1

MCF-7 Tam1 [4] = assay: as above; conditions: 4-OH-tamoxifen in medium 1 µM; 72 h
Summary of the method: as §1

MCF-7 [5] = assay: as above; conditions: 72 h
Summary of the method: as §1

T-47D Tam1 [6] = assay: as above; conditions: 4-OH-tamoxifen in medium 1 µM; 72 h
Summary of the method: as §1

T-47D Tam2 [7] = assay: as above; conditions: 4-OH-tamoxifen in medium 1 µM; 72 h
Summary of the method: as §1

T-47D [8] = assay: as above; conditions: 72 h
Summary of the method: as §1

ZR-75-1 Tam1 [9] = assay: as above; conditions: 4-OH-tamoxifen in medium 1 µM; 72 h
Summary of the method: as §1

ZR-75-1 Tam2 [10] = assay: as above; conditions: 4-OH-tamoxifen in medium 1 µM; 72 h
Summary of the method: as §1

ZR-75-1 [11] = assay: as above; conditions: 72 h
Summary of the method: as §1

BT-474 Tam1 [12] = assay: relative IC50 (midpoint of fitted logistic curve, plateau may be below 50% inhibition; CellTiter-Glo viability); higher = less potent; conditions: 4-OH-tamoxifen in medium 1 µM; 72 h
Summary of the method: as §1

BT-474 [13] = assay: as above; conditions: 72 h
Summary of the method: as §1

MCF-7 Tam1 [14] = assay: as above; conditions: 4-OH-tamoxifen in medium 1 µM; 72 h
Summary of the method: as §1

MCF-7 [15] = assay: as above; conditions: 72 h
Summary of the method: as §1

T-47D Tam1 [16] = assay: as above; conditions: 4-OH-tamoxifen in medium 1 µM; 72 h
Summary of the method: as §1

T-47D Tam2 [17] = assay: as above; conditions: 4-OH-tamoxifen in medium 1 µM; 72 h
Summary of the method: as §1

T-47D [18] = assay: as above; conditions: 72 h
Summary of the method: as §1

ZR-75-1 Tam1 [19] = assay: as above; conditions: 4-OH-tamoxifen in medium 1 µM; 72 h
Summary of the method: as §1

ZR-75-1 Tam2 [20] = assay: as above; conditions: 4-OH-tamoxifen in medium 1 µM; 72 h
Summary of the method: as §1

ZR-75-1 [21] = assay: as above; conditions: 72 h
Summary of the method: as §1

BT-474 Tam2 [22] = assay: as above; conditions: 4-OH-tamoxifen in medium 1 µM; 72 h
Summary of the method: as §1

| Compound | drug sensitivity score (BT-474 Tam1 [1]) | drug sensitivity score (BT-474 Tam2 [2]) | drug sensitivity score (BT-474 [3]; 4-OH-tamoxifen in medium 0 µM) | drug sensitivity score (BT-474 [3]; 4-OH-tamoxifen in medium 1 µM) | drug sensitivity score (MCF-7 Tam1 [4]) | drug sensitivity score (MCF-7 [5]; 4-OH-tamoxifen in medium 0 µM) | drug sensitivity score (MCF-7 [5]; 4-OH-tamoxifen in medium 1 µM) | drug sensitivity score (T-47D Tam1 [6]) | drug sensitivity score (T-47D Tam2 [7]) | drug sensitivity score (T-47D [8]; 4-OH-tamoxifen in medium 0 µM) | drug sensitivity score (T-47D [8]; 4-OH-tamoxifen in medium 1 µM) | drug sensitivity score (ZR-75-1 Tam1 [9]) | drug sensitivity score (ZR-75-1 Tam2 [10]) | drug sensitivity score (ZR-75-1 [11]; 4-OH-tamoxifen in medium 0 µM) | drug sensitivity score (ZR-75-1 [11]; 4-OH-tamoxifen in medium 1 µM) | relative IC50 (BT-474 Tam1 [12]) [µM] | relative IC50 (BT-474 [13]; 4-OH-tamoxifen in medium 0 µM) [µM] | relative IC50 (BT-474 [13]; 4-OH-tamoxifen in medium 1 µM) [µM] | relative IC50 (MCF-7 Tam1 [14]) [µM] | relative IC50 (MCF-7 [15]; 4-OH-tamoxifen in medium 0 µM) [µM] | relative IC50 (T-47D Tam1 [16]) [µM] | relative IC50 (T-47D Tam2 [17]) [µM] | relative IC50 (T-47D [18]; 4-OH-tamoxifen in medium 0 µM) [µM] | relative IC50 (T-47D [18]; 4-OH-tamoxifen in medium 1 µM) [µM] | relative IC50 (ZR-75-1 Tam1 [19]) [µM] | relative IC50 (ZR-75-1 Tam2 [20]) [µM] | relative IC50 (ZR-75-1 [21]; 4-OH-tamoxifen in medium 0 µM) [µM] | relative IC50 (ZR-75-1 [21]; 4-OH-tamoxifen in medium 1 µM) [µM] | relative IC50 (BT-474 Tam2 [22]) [µM] | relative IC50 (MCF-7 [15]; 4-OH-tamoxifen in medium 1 µM) [µM] |
| --- | --- | --- | --- | --- | --- | --- | --- | --- | --- | --- | --- | --- | --- | --- | --- | --- | --- | --- | --- | --- | --- | --- | --- | --- | --- | --- | --- | --- | --- | --- |
| CN1CCC(COc2cnc(-c3cccc(Cn4nc(-c5cccc(C#N)c5)ccc4=O)c3)nc2)CC1 | 0 | 1.22 | 0 | 0 | 0 | 0 | 0.0353 | 3.13 | 0 | 0 | 0 | 0 | 0 | 0 | 0 | > 1 | > 1 | > 1 | > 1 | > 1 | 0.314 | > 1 | > 1 | > 1 | > 1 | > 1 | > 1 | > 1 |  |  |
| C[C@@]1(C(=O)Nc2ccc(F)nc2)CCCN1c1nc(Nc2cc(C3CC3)n[nH]2)c2cccn2n1 | 0.49 | 0 | 0.215 | 0.473 | 13.2 | 17.7 | 21 | 4.88 | 6.16 | 5.37 | 7.74 | 0 | 0 | 0 | 0 |  |  |  | 0.197 | 0.0789 | 1.16 | 1.14 | 0.921 | 0.21 | > 10 | > 10 | > 10 | > 10 | > 10 | 0.0802 |
| O=C(Nc1c[nH]nc1-c1nc2ccc(CN3CCOCC3)cc2[nH]1)NC1CC1 [AT9283] | 0 | 0 | 0 | 0 | 0 | 0 | 0 | 0 | 0 | 0 | 0 | 0 | 0 | 0 | 0 | > 1 | > 1 | > 1 | > 1 | > 1 | > 1 | > 1 | > 1 | > 1 | > 1 | > 1 | > 1 | > 1 |  | > 1 |
| COc1cc(CCc2cc(NC(=O)c3ccc(N4CC(C)NC(C)C4)cc3)n[nH]2)cc(OC)c1 (stereo not drawn) [AZD4547] | 0 | 0 | 0 | 0 | 0 | 0 | 0 | 0 | 0 | 0 | 0 | 0 | 0 | 0 | 0 |  | > 1 | > 1 | > 1 | > 1 | > 1 | > 1 | > 1 | > 1 | > 1 | > 1 | > 1 | > 1 | > 1 | > 1 |
